In ChEMBL document CHEMBL1129776, “Design of dual-acting thromboxane antagonist-synthase inhibitors by a mutual prodrug approach” (Bioorg Med Chem Lett, 1996):
Several values for one entry are separate records, joined by “and”; a condition that tells them apart may be missing. Identical values can stand only once.

What was measured:
Thromboxane A2 receptor = target: T1, Thromboxane A2 receptor (Homo sapiens, UniProt P21731); assay: Thromboxane (TXA2) receptor antagonist activity using human platelet; assay type: functional; conditions: for Kb: read-out: pA2 (converted)
T1 sequence (P21731 whole entry): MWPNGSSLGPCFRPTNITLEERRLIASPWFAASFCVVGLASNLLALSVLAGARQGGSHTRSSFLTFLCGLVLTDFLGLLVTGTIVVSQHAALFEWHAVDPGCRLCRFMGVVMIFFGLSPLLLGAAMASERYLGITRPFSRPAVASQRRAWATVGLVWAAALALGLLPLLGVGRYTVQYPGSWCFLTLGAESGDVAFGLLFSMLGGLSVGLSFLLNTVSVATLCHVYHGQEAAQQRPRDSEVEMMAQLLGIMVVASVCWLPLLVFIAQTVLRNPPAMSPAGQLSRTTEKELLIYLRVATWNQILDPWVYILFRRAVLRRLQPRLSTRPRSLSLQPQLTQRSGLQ

Thromboxane-A synthase = target: T2, Thromboxane-A synthase (Homo sapiens, UniProt P24557); assay: Compound was tested for thromboxane TXA2 synthase inhibitory activity using human platelet
T2 sequence (P24557 whole entry): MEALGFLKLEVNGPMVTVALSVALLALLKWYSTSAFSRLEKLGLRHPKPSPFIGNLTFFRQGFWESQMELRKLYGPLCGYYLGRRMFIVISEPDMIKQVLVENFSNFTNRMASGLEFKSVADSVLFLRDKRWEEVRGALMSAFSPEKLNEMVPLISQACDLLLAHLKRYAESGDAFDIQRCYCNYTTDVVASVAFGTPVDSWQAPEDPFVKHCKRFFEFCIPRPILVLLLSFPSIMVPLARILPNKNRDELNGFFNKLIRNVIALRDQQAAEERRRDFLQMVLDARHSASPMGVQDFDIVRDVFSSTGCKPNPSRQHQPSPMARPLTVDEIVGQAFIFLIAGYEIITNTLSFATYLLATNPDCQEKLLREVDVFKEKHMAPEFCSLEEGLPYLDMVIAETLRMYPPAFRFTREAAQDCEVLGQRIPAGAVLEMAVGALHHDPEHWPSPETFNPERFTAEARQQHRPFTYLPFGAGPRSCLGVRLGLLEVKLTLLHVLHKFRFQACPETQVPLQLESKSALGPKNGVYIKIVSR

[1] = target: T3, Thromboxane-A synthase (Homo sapiens) (UniProt P24557); assay: Compound was evaluated for inhibition of TXA2 synthase by measuring collagen stimulated TXB2 production in the blood samples after 8 hr time at a dose of 0.05 mg/kg; assay type: functional, organism-based; parameters: dose 0.05 mg/kg; conditions: Canis lupus familiaris
T3 sequence (whole entry): T2 sequence (P24557 whole entry)

Canis familiaris [2] = assay: Compound was tested ex vivo for plasma concentration ratio at 2 hr in conscious dogs at specified time intervals at a dose of 0.05 mg/kg.; assay type: functional, Canis lupus familiaris
[3] = target: T3, Thromboxane-A synthase (Homo sapiens); assay: Compound was evaluated for inhibition of TXA2 synthase by measuring collagen stimulated TXB2 production in the blood samples after 2 hr time at a dose of 0.05 mg/kg; assay type: functional, organism-based; parameters: dose 0.05 mg/kg; conditions: Canis lupus familiaris
Canis familiaris [4] = assay: Compound was tested ex vivo for plasma concentration ratio at 8 hr in conscious dogs at specified time intervals at a dose of 0.05 mg/kg.; assay type: functional, Canis lupus familiaris
Canis familiaris [5] = assay: Compound was tested for plasma concentration ratio at 2 hr in conscious dogs at specified time intervals at a dose of 0.05 mg/kg.; assay type: functional, Canis lupus familiaris
Canis familiaris [6] = assay: Compound was tested for plasma concentration ratio at 8 hr in conscious dogs at specified time intervals at a dose of 0.05 mg/kg.; assay type: functional, Canis lupus familiaris
Canis familiaris [7] = assay: Compound was tested for plasma concentration ratio at 8 hr in conscious dogs at specified time intervals at a dose of 1.0 mg/kg.; assay type: functional, Canis lupus familiaris
Canis familiaris [8] = assay: Compound was tested for plasma concentration ratio at 2 hr in conscious dogs at specified time intervals at a dose of 1.0 mg/kg.; assay type: functional, Canis lupus familiaris
[9] = target: T3, Thromboxane-A synthase (Homo sapiens); assay: (§1) Compound was evaluated for inhibition of TXA2 synthase by measuring collagen stimulated TXB2 production in the blood samples after 8 hr time at a dose of 1.0 mg/kg; assay type: functional, organism-based; parameters: dose 1 mg/kg; conditions: Canis lupus familiaris
[10] = target: T3, Thromboxane-A synthase (Homo sapiens); assay: Compound was evaluated for inhibition of TXA2 synthase by measuring collagen stimulated TXB2 production in the blood samples after 2 hr time at a dose of 1.0 mg/kg; assay type: functional, organism-based; parameters: dose 1 mg/kg; conditions: Canis lupus familiaris
[11] = target: T3, Thromboxane-A synthase (Homo sapiens); assay: as §1; assay type: functional, organism-based; parameters: dose 1 mg/kg; conditions: Canis lupus familiaris; remark: listed apart in the source

| Structure (SMILES) | Kb (Thromboxane A2 receptor) [µM] | IC50 (Thromboxane-A synthase) [µM] | inhibition [1] [%] | inhibition [3] [%] | further results |
| --- | --- | --- | --- | --- | --- |
| N#Cc1ccc([C@H]2OC[C@@H](C/C=C\CCC(=O)OCCOC(=O)CC/C=C\C[C@@H]3CO[C@H](c4ccc(C#N)cc4)O[C@@H]3c3ccccc3O)[C@@H](c3cccnc3)O2)cc1 | > 10 | > 10 | – | – | – |
| N#Cc1ccc([C@H]2OC[C@@H](C/C=C\CCC(=O)O)[C@@H](c3ccccc3O)O2)cc1 | 0.00501 | > 10 | > 50 | > 50 | Ratio (Canis familiaris [2]): 60; Ratio (Canis familiaris [4]): 35 |
| N#Cc1ccc([C@H]2OC[C@@H](C/C=C\CCC(=O)Oc3ccccc3OC(=O)CC/C=C\C[C@@H]3CO[C@H](c4ccccc4Cl)O[C@@H]3c3ccccc3O)[C@@H](c3cccnc3)O2)cc1 (stereo in doubt; 16 (-)) [listing 1 of 2 here] | 10 | > 10 | – | – | Ratio (Canis familiaris [5]; 0.05 mg/kg): 35; Ratio (Canis familiaris [6]; 0.05 mg/kg): 150 |
| N#Cc1ccc([C@H]2OC[C@@H](C/C=C\CCC(=O)Oc3ccccc3OC(=O)CC/C=C\C[C@@H]3CO[C@H](c4ccccc4Cl)O[C@@H]3c3ccccc3O)[C@@H](c3cccnc3)O2)cc1 (stereo in doubt; 16 (-)) [listing 2 of 2 here] | – | – | 64 | 31 | – |
| N#Cc1ccc([C@H]2OC[C@@H](C/C=C\CCC(=O)NCCCCCCNC(=O)CC/C=C\C[C@@H]3CO[C@H](c4ccc(C#N)cc4)O[C@@H]3c3ccccc3O)[C@@H](c3cccnc3)O2)cc1 | 10 | > 10 | – | – | – |
| N#Cc1ccc([C@H]2OC[C@@H](C/C=C\CCC(=O)Oc3ccccc3OC(=O)CC/C=C\C[C@@H]3CO[C@H](c4ccc(C#N)cc4)O[C@@H]3c3ccccc3O)[C@@H](c3cccnc3)O2)cc1 | 10 | > 10 | < 50 | 68 | Ratio (Canis familiaris [5]): 587; Ratio (Canis familiaris [6]): 283 |
| N#Cc1ccc([C@H]2OC[C@@H](C/C=C\CCC(=O)OCCCCCCOC(=O)CC/C=C\C[C@@H]3CO[C@H](c4ccc(C#N)cc4)O[C@@H]3c3ccccc3O)[C@@H](c3cccnc3)O2)cc1 | 10 | > 10 | – | – | – |
| N#Cc1ccc([C@H]2OC[C@@H](C/C=C\CCC(=O)Oc3ccccc3OC(=O)CC/C=C\C[C@@H]3CO[C@H](c4ccccc4Cl)O[C@@H]3c3ccccc3O)[C@@H](c3cccnc3)O2)cc1 (stereo in doubt; 15) [listing 1 of 2 here] | – | > 10 | – | – | pA2 (Thromboxane A2 receptor): 5; Ratio (Canis familiaris [5]; 0.05 mg/kg): 140; Ratio (Canis familiaris [6]; 0.05 mg/kg): 170 |
| N#Cc1ccc([C@H]2OC[C@@H](C/C=C\CCC(=O)Oc3ccccc3OC(=O)CC/C=C\C[C@@H]3CO[C@H](c4ccccc4Cl)O[C@@H]3c3ccccc3O)[C@@H](c3cccnc3)O2)cc1 (stereo in doubt; 15) [listing 2 of 2 here] | – | – | 57 | 54 | – |
| N#Cc1ccc([C@H]2OC[C@@H](C/C=C\CCC(=O)Oc3ccc(OC(=O)CC/C=C\C[C@@H]4CO[C@H](c5ccc(C#N)cc5)O[C@@H]4c4ccccc4O)cc3)[C@@H](c3cccnc3)O2)cc1 | 10 | > 10 | – | – | – |
| N#Cc1ccc([C@H]2OC[C@@H](C/C=C\CCC(=O)NCCNC(=O)CC/C=C\C[C@@H]3CO[C@H](c4ccc(C#N)cc4)O[C@@H]3c3ccccc3O)[C@@H](c3cccnc3)O2)cc1 | 10 | > 10 | – | – | – |
| N#Cc1ccc([C@H]2OC[C@@H](C/C=C\CCC(=O)O)[C@@H](c3cccnc3)O2)cc1 | 1.26 | 0.02 | – | – | Ratio (Canis familiaris [7]): 1.3; Ratio (Canis familiaris [8]): 1.4; inhibition [9]: 93%; inhibition [10]: 97% and 84%; inhibition [11]: 84% |
| O=C(O)CC/C=C\C[C@@H]1CO[C@H](c2ccccc2Cl)O[C@@H]1c1ccccc1O | – | > 10 | > 50 | > 50 | – |
